Experimental data from PMC11181478, “SARS-CoV-2 Main Protease Inhibitors That Leverage Unique Interactions with the Solvent Exposed S3 Site of the Enzyme” (ACS Medicinal Chemistry Letters, 2024).
Like-named read-outs stand apart in the source and are kept apart here.

Key:
SARS-CoV-2 M^Pro [1] = target: T1, SARS-CoV-2 M^Pro (Severe acute respiratory syndrome coronavirus 2, UniProt P0DTD1); conditions: read-out: IC50 against M^Pro; previously published inhibitors; cited from earlier work
[2] = target: M^Pro-eGFP fusion protein transiently expressed in 293T cells (Severe acute respiratory syndrome coronavirus 2, UniProt P0DTD1); type: cell-based, SARS-CoV-2; conditions: read-out: Cellular EC50
SARS-CoV-2 M^Pro [3] = target: T1, SARS-CoV-2 M^Pro; experiment: In vitro M^Pro inhibition potency (enzymatic IC50, fluorogenic substrate Sub3); type: biochemical; conditions: 20 nM M^Pro, 10 μM Sub3, 30 min preincubation, pH 7.6

## CC(C)(C)C[C@H](NC(=O)OCc1ccccc1)C(=O)N[C@H](C=O)C[C@@H]1CCNC1=O [MPI50]
SARS-CoV-2 M^Pro [1]
  IC50: 53 nM

## CC1(C)[C@@H]2[C@@H](C(=O)N[C@H](C=O)C[C@@H]3CCNC3=O)N(C(=O)OC(c3ccccc3)c3ccccc3)C[C@@H]21 [MPI94]
[2]
  EC50: 900 nM

## CC1(C)[C@@H]2[C@@H](C(=O)N[C@H](C=O)C[C@@H]3CCNC3=O)N(C(=O)OC(c3ccc(F)cc3)c3ccc(F)cc3)C[C@@H]21 [MPI95]
[2]
  EC50: 910 nM

## CC1(C)[C@@H]2[C@@H](C(=O)N[C@H](C=O)C[C@@H]3CCNC3=O)N(C(=O)C(c3ccc(Cl)cc3)c3ccc(Cl)cc3)C[C@@H]21 [MPI96]
[2]
  EC50: 2900 nM

## CC1(C)[C@@H]2[C@@H](C(=O)N[C@H](C=O)C[C@@H]3CCNC3=O)N(C(=O)N(c3ccc(Cl)cc3)c3ccc(Cl)cc3)C[C@@H]21 [MPI97]
[2]
  EC50: 1100 nM

## CC1(C)[C@@H]2[C@@H](C(=O)N[C@H](C=O)C[C@@H]3CCNC3=O)N(C(=O)C(Oc3ccc(Cl)cc3)Oc3ccc(Cl)cc3)C[C@@H]21 [MPI98]
[2]
  EC50: 490 nM

## CC1(C)[C@@H]2[C@@H](C(=O)N[C@H](C=O)C[C@@H]3CCNC3=O)N(C(=O)[C@H](Cc3ccccc3)NC(=O)OCc3ccccc3)C[C@@H]21 [MPI99]
SARS-CoV-2 M^Pro [3]
  IC50: 270 nM
[2]
  EC50: > 5000 nM

## CC1(C)[C@@H]2[C@@H](C(=O)N[C@H](C=O)C[C@@H]3CCNC3=O)N(C(=O)[C@H](CC3CCCCC3)NC(=O)OCc3ccccc3)C[C@@H]21 [MPI100]
[2]
  EC50: 140 nM

## CC(C)(C)C[C@H](NC(=O)OCc1cccnc1)C(=O)N[C@H](C=O)C[C@@H]1CCNC1=O [MPI101]
SARS-CoV-2 M^Pro [3]
  IC50: 20 nM
[2]
  EC50: > 5000 nM

## CC1(C)[C@@H]2[C@@H](C(=O)N[C@H](C=O)C[C@@H]3CCNC3=O)N(C(=O)OCc3cccnc3)C[C@@H]21 [MPI102]
SARS-CoV-2 M^Pro [3]
  IC50: 28 nM
[2]
  EC50: > 5000 nM

## CC1(C)[C@@H]2[C@@H](C(=O)N[C@H](C#N)C[C@@H]3CCNC3=O)N(C(=O)OCc3cccnc3)C[C@@H]21 [MPI103]
SARS-CoV-2 M^Pro [3]
  IC50: 28 nM
[2]
  EC50: > 5000 nM

## CC(C)(C)C[C@H](NC(=O)[C@@H]1CC[C@@H]1c1ccccc1)C(=O)N[C@H](C=O)C[C@@H]1CCNC1=O [MPI104]
SARS-CoV-2 M^Pro [3]
  IC50: 79 nM
[2]
  EC50: > 5000 nM

## CC(C)(C)C[C@H](NC(=O)N1CC[C@@H]1c1ccccc1)C(=O)N[C@H](C=O)C[C@@H]1CCNC1=O [MPI105]
SARS-CoV-2 M^Pro [3]
  IC50: 39 nM
[2]
  EC50: > 5000 nM

## CC1(C)[C@@H]2[C@@H](C(=O)N[C@H](C#N)C[C@@H]3CCNC3=O)N(C(=O)[C@@H](NC(=O)C(F)(F)F)c3ccc(Cl)cc3)C[C@@H]21 [MPI106]
[2]
  EC50: > 5000 nM

## CC1(C)[C@@H]2[C@@H](C(=O)N[C@H](C#N)C[C@@H]3CCNC3=O)N(C(=O)[C@@H](NC(=O)C(F)(F)F)c3ccc(Cl)c(Cl)c3)C[C@@H]21 [MPI108]
[2]
  EC50: > 5000 nM
